{"source": "patent US4853384A", "about": "“1-carbonyl derivatives of 4-aryl-4-aryloxypiperidines” (Hoechst-Roussel Pharmaceuticals Inc., priority 1988, dated 1989)", "type_in_all_cases": "in vivo, mice (male, Charles River, CD-1)", "key": {"[1]": {"tested_on": "mice", "test": "Metrazol lethality assay (MTZ), anticonvulsant activity", "details": "Mus musculus, po", "method": "(§1) The compounds of this invention are also useful as anticonvulsants due to their anticonvulsant activity in mammals. Anticonvulsant activity is measured in male mice using the supramaximal electroshock (SES) assay described in Arch. Int. Pharmacodyn. 92, pp. 97-107, (1952) and the metrazol lethality assay (MTZ) described in J. Pharmacol. Exp. Ther., 81, 402 (1944).\nGroups of male mice (Charles River, CD-1), weighing 18 to 30 grams are employed in the Metrazol lethality assay. Test compounds are dissolved in distilled water or if insoluble, suspended in water, to which a surfactant, such as Tween-80 is added. The test compounds are administered orally, the administered dose being dissolved or suspended in 10 ml of solution or suspension per kg of animal body weight. Control animals (2 mice/group) receive water or water and Tween-80, i.e., the vehicle for administration of the test compound. Metrazol (pentylenetetrazol) is dissolved in water (concentration 225 mg of Metrazol/10 ml of solution), and the solution is administered subcutaneously to groups of five animals each at one or more time intervals of 15, 30, 60, 90, or 120 minutes after administration of the test compound. The number of animal alive 15 minutes after treatment with Metrazol is determined and recorded. The following formula is employed to calculate the percent protection against Metrazol lethality. [formula]\nA dose range determination is performed by substantially the same procedure as the time response determination. In the dose range determination, five groups of 10 animals per group are employed. This determination is generally reserved for those compounds which protect against lethality by greater than 70% at the screening dose employed.\n(§2) The anticonvulsant activity of several of the compounds of this invention as per the SES and MTZ assay procedures is provided in Table 2."}, "[2]": {"tested_on": "mice", "test": "phenyl-p-quinone (phenyl-p-benzoquinone) writhing assay in mice, analgesia", "method": "The procedure employed to determine analgetic utility is a modification of the phenyl-p-benzoquinone writhing assay in mice, a standard assay for analgesia [Proc. Soc. Exptl. Bio. […] The solution is administered to the subject mice intraperitoneally at a dose of 10 ml per kg of body weight. A characteristic \"writhe\" an inward rotation of one or more feet with twisting and turning of the trunk, drawing in of the abdominal wall, lordosis and arching of the back, is produced. A total of 28 male mice (Charles River, CD-1), weighing 18 to 30 grams, are employed for a time response. The subject animals receive food and water ad libitum. Test compounds are dissolved in distilled water, or suspended in distilled water containing one drop of a suitable surfactant, such as Tween-80. […] A control group (2 animals per group) receive an equal volume of the vehicle. After the administration of the phenyl-p-quinone, the mice are place separately in one liter beakers, and after five minutes, are observed for ten minutes. The number of writhes for each animal is recorded. The following formula is used to compute the percent inhibition: [formula] The time period with the greatest percent of inhibition is considered the peak time."}, "[3]": {"tested_on": "mice", "test": "supramaximal electroshock (SES) assay, anticonvulsant activity", "details": "Mus musculus, ip", "method": "as §1\nGroups of male mice (Charles River, CD-1) weighing 18 to 30 g are employed in the SES assay. Test compounds are dissolved in distilled water, or if insoluble, suspended in water containing one drop of a surfactant, such as Tween-80. Test compounds are generally administered intraperitoneally at a dose of 10 ml of solution, or suspension, per kg of animal body weight. The output terminals of an A.C. shocker, which delivers 206 volts rms for 300 msec, are placed across the animals' eyes, an electrode paste coating assuring contact of the terminals with the eyes. The test compound is administered and thereafter the subject animals are shocked.\nProtection is expressed as normalized percent inhibition relative to vehicle control. [formula] A time response is carried out using 6 animals per group. Animals are tested at 30, 60 and 120 minutes post drug. Additional time periods are tested if indicated by previous tests. A dose range determination is generally reserved for those compounds which inhibit convulsions by greater than about 45-55% at the screening dose employed at the time the test was performed. When the peak activity time has been determined, a dose response is initiated, using 10 animals per group at that time period.\nas §2"}}, "data": [{"molecule": "CNC(=O)N1CCC(Oc2c(F)c(F)c(F)c(F)c2F)(c2ccccc2)CC1", "note": "[1-(N-Methylamino)carbonyl-4-(2,3,4,5,6-pentafluorophenoxy)-4-phenylpiperidine]", "values": [{"measurement": "ED50", "setting": "[1]", "value": 64.3, "unit": "mg/kg"}]}, {"molecule": "CNC(=O)N1CCC(Oc2ccc([N+](=O)[O-])cc2)(c2ccccc2)CC1", "note": "[1-(N-Methylamino)carbonyl-4-(4-nitrophenoxy)-4-phenylpiperidine]", "values": [{"measurement": "Analgesic Activity: % Inhibition of writhing at a screening dose of 20 mg/kg, s.c.", "setting": "[2]", "value": 34, "unit": "%"}, {"measurement": "ED50", "setting": "[1]", "value": 55.2, "unit": "mg/kg"}]}, {"molecule": "CNC(=O)N1CCC(Oc2cccc(C(F)(F)F)c2)(c2ccccc2)CC1", "note": "[1-(N-Methylamino)carbonyl-4-phenyl-4-(3-trifluoromethylphenoxy)piperidine]", "values": [{"measurement": "ED50", "setting": "[3]", "value": 43.5, "unit": "mg/kg"}]}, {"molecule": "CNC(=O)N1CCC(Oc2ccc(C(F)(F)F)cc2)(c2ccccc2)CC1", "note": "[1-(N-Methylamino)carbonyl-4-phenyl-4-(4-trifluoromethylphenoxy)piperidine]", "values": [{"measurement": "ED50", "setting": "[1]", "value": 41.2, "unit": "mg/kg"}]}, {"molecule": "CC(=O)N1CCC(Oc2c(F)c(F)c(F)c(F)c2F)(c2ccccc2)CC1", "note": "[1-Acetyl-4-(2,3,4,5,6-pentafluorophenoxy)-4-phenylpiperidine]", "values": [{"measurement": "Analgesic Activity: % Inhibition of writhing at a screening dose of 20 mg/kg, s.c.", "setting": "[2]", "value": 38, "unit": "%"}, {"measurement": "ED50", "setting": "[1]", "value": 60.5, "unit": "mg/kg"}]}, {"molecule": "CC(=O)N1CCC(Oc2cccc(Cl)c2)(c2ccccc2)CC1", "note": "[1-Acetyl-4-(3-chlorophenoxy)-4-phenylpiperidine]", "values": [{"measurement": "ED50", "setting": "[3]", "value": 55.4, "unit": "mg/kg"}, {"measurement": "Analgesic Activity: % Inhibition of writhing at a screening dose of 20 mg/kg, s.c.", "setting": "[2]", "value": 33, "unit": "%"}]}, {"molecule": "CC(=O)N1CCC(Oc2cccc(C(F)(F)F)c2)(c2ccccc2)CC1", "note": "[1-Acetyl-4-phenyl-4-(3-trifluoromethylphenoxy)piperidine]", "values": [{"measurement": "Analgesic Activity: % Inhibition of writhing at a screening dose of 20 mg/kg, s.c.", "setting": "[2]", "value": 48, "unit": "%"}]}, {"molecule": "CC(=O)N1CCC(Oc2ccc(C(F)(F)F)cc2)(c2ccccc2)CC1", "note": "[1-Acetyl-4-phenyl-4-(4-trifluoromethylphenoxy)piperidine]", "values": [{"measurement": "ED50", "setting": "[3]", "value": 32.1, "unit": "mg/kg"}, {"measurement": "Analgesic Activity: % Inhibition of writhing at a screening dose of 20 mg/kg, s.c.", "setting": "[2]", "value": 32, "unit": "%"}, {"measurement": "ED50", "setting": "[1]", "value": 44.8, "unit": "mg/kg"}]}, {"molecule": "NC(=O)N1CCC(Oc2ccc([N+](=O)[O-])cc2)(c2ccccc2)CC1", "note": "[1-Aminocarbonyl-4-(4-nitrophenoxy)-4-phenylpiperidine]", "values": [{"measurement": "Analgesic Activity: % Inhibition of writhing at a screening dose of 20 mg/kg, s.c.", "setting": "[2]", "value": 42, "unit": "%"}]}, {"molecule": "O=C(Cn1ccnc1)N1CCC(Oc2c(F)c(F)c(F)c(F)c2F)(c2ccccc2)CC1", "note": "[1-[2-(Imidazol-1-yl)acetyl]-4-(2,3,4,5,6-pentafluorophenoxy)-4-phenylpiperidine]", "values": [{"measurement": "ED50", "setting": "[1]", "value": 38, "unit": "mg/kg"}]}, {"molecule": "CC(=O)Oc1ccccc1C(=O)O", "note": "[asprin, reference compound]", "values": [{"measurement": "Analgesic Activity: % Inhibition of writhing at a screening dose of 20 mg/kg, s.c.", "setting": "[2]", "value": 33, "unit": "%"}]}, {"molecule": "CCC1(c2ccccc2)C(=O)NC(=O)NC1=O", "note": "[phenobarbital, reference compound]", "values": [{"measurement": "ED50", "setting": "[3]", "value": 8.4, "unit": "mg/kg"}]}]}
